Results reported in patent US4044132A, “Substituted piperazine derivative, its preparation and anorexia compositions containing it” (Synthelabo, priority 1975, dated 1977).
Where two headings read alike, the source gives them in different places.

Tests used:
rats [1] = test: Anorexia-inducing action, food consumption of female SJ (Janvier) rats; format: in vivo; conditions: for ED50: Rattus norvegicus, female SJ (Janvier) rats, oral, 1 hour before distribution of food
Protocol: (§1) The experiment was carried out by administering each compound orally at several doses to batches of 8 animals per dose, 1 hour before the distribution of the food, and graphically determining the 50% active doses (AD 50 = dose capable of reducing the food consumption by 50%).

rats [2] = test: Anorexia-inducing action, food consumption of male Charles River rats, 1 hour and 6 hours after administration; format: in vivo; conditions: Rattus norvegicus, oral
Protocol: as §1
The AD 50 (i.e. the dose which reduces food consumption by 50% compared with untreated controls) was also determined, in the same way as that described above, on male `Charles River` rats, 1 hour and 6 hours after administration of the compounds under test.

[3] = Acute toxicity (50% lethal dose, determined graphically); format: in vivo, mice (CDl); conditions: mouse, in vivo, CDl mice
Protocol: (§2) Acute toxicity: the experiments were carried out on CDl mice of average weight 20 g. The 50% lethal dose (LD 50) was determined graphically.

CD1 mice = test: Conventional actimetry test (motility); format: in vivo
CDl mice = test: Acute toxicity (50% lethal dose, determined graphically); format: in vivo
Protocol: as §2

[4] = 1st series, read-out: Anorexia-inducing action AD 50, administered orally, 1st series
[5] = after 1 hour, read-out: Anorexia-inducing Action AD 50 orally after 1 hour
[6] = after 6 hours, read-out: Anorexia-inducing Action AD 50 orally after 6 hours
[7] = intravenous, read-out: Acute toxicity LD 50, intravenous administration
[8] = oral, read-out: Acute toxicity LD 50, oral administration
[9] = 2nd series, read-out: Anorexia-inducing action AD 50, administered orally, 2nd series

CCNC(C)Cc1cccc(C(F)(F)F)c1 (stereo not shown) [Fenfluramine, reference compound]
ED50 (rats [1]; [4]): 5 mg/kg | ED50 (rats [2]; [5]): 1.4 mg/kg | ED50 (rats [2]; [6]): 4 mg/kg | LD50 [3, 7]: 42 mg/kg | LD50 [3, 8]: 195 mg/kg

Fc1ccc(N2CCNCC2)cc1C(F)(F)F [SLC-001, 1-(4-fluoro-3-trifluoromethyl-phenyl)-piperazine, reference compound]
ED50 (rats [1]; [9]): 2.2 mg/kg | ED50 (rats [2]; [5]): 2 mg/kg | ED50 (rats [2]; [6]): > 6 mg/kg | LD50 [3, 7]: 59 mg/kg | LD50 [3, 8]: 150 mg/kg

Fc1ccc(N2CCNCC2)cc1SC(F)(F)F [SLC-298, 1-(4-fluoro-3-trifluoromethylthiophenyl)-piperazine]
motor activity at higher doses (CD1 mice; CD1 mice, 20 mg/kg): reduces the motor activity | motility at a low dose (CD1 mice; CD1 mice, up to 5 mg/kg): only very slightly increases the motility | stimulant effect (CD1 mice; overall conclusion): little or no stimulant effect | ED50 (rats [1]; [4]): 1.5 mg/kg | ED50 (rats [1]; [9]): 1.8 mg/kg | anorexia-inducing activity compared with the reference compounds (rats [1]; overall conclusion from Tables I and II): more active as an anorexia-inducing agent than the reference compounds | ED50 (rats [2]; [5]): 1.9 mg/kg | ED50 (rats [2]; [6]): 2.7 mg/kg | toxicity (CDl mice; overall conclusion): moderate | therapeutic index (CDl mice; overall conclusion from LD 50 and AD 50): high | LD50 [3, 7]: 60 mg/kg | LD50 [3, 8]: 150 mg/kg
